Experiments:
Type in all cases: in vivo
[1] = tested on: chickweed (Stellaria media); assay: Test C postemergence
Procedure, shortened: (§1)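 Percent control is a visual rating (0 none, 100 complete) taken against untreated plants after 12 to 14 days of greenhouse growth. Applications were made preemergence to seeded pots and postemergence to plants at the 1- to 4-leaf stage, in a non-phytotoxic surfactant-containing solvent.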

[2] = tested on: yellow nutsedge (Cyperus esculentus); assay: Test C pre/postemergence; details: for Plant response rating, Nutsedge, Yellow: Preemergence, scale 0 to 100, 0 no effect, 100 complete control
Procedure, shortened: as §1

[3] = tested on: woolly cupgrass (Eriochloa villosa); assay: Test C pre/postemergence; details: for Plant response rating, Cupgrass, Woolly: Preemergence
Procedure, shortened: as §1

[4] = tested on: common (oilseed) sunflower (Helianthus annuus); assay: Test C pre/postemergence; details: Preemergence, scale 0 to 100, 0 no effect, 100 complete control
Procedure, shortened: as §1

[5] = tested on: Surinam grass (Brachiaria decumbens); assay: Test C pre/postemergence; details: for Plant response rating, Surinam Grass: Preemergence, scale 0 to 100, 0 no effect, 100 complete control
Procedure, shortened: as §1

kochia (Kochia scoparia) = assay: Test C pre/postemergence; details: for Plant response rating, Kochia: Preemergence
Procedure, shortened: as §1

[6] = tested on: morningglory (Ipomoea coccinea); assay: Test C pre/postemergence; details: for Plant response rating, Morningglory: Preemergence
Procedure, shortened: as §1

[7] = tested on: pigweed (Amaranthus retroflexus); assay: Test C pre/postemergence; details: for Plant response rating, Pigweed: Preemergence, scale 0 to 100, 0 no effect, 100 complete control
Procedure, shortened: as §1

[8] = tested on: common ragweed (Ambrosia elatior); assay: Test C pre/postemergence; details: for Plant response rating, Ragweed: Preemergence, scale 0 to 100, 0 no effect, 100 complete control
Procedure, shortened: as §1

[9] = tested on: johnsongrass (Sorghum halepense); assay: Test C pre/postemergence; details: for Plant response rating, Johnsongrass: Preemergence
Procedure, shortened: as §1

[10] = tested on: giant foxtail (Setaria faberii); assay: Test C pre/postemergence; details: for Plant response rating, Foxtail, Giant: Preemergence
Procedure, shortened: as §1

soybean (Glycine max) = assay: Test C pre/postemergence; details: for Plant response rating, Soybean: Preemergence, scale 0 to 100, 0 no effect, 100 complete control
Procedure, shortened: as §1

[11] = Postemergence, 125 g ai/ha, scale 0 to 100 (0 no effect, 100 complete control)
[12] = 16 g ai/ha, scale 0 to 100, 0 no effect, 100 complete control
[13] = 31 g ai/ha, scale 0 to 100, 0 no effect, 100 complete control
[14] = 62 g ai/ha, scale 0 to 100, 0 no effect, 100 complete control

SMILES: Nc1nc(-c2ccc(Cl)cc2)nc(C(=O)[O-])c1Cl.[Na+] [Compound 117]
- Plant response rating (scale of 0 to 100), Chickweed ([1]; 16 g ai/ha): 30
- Plant response rating (scale of 0 to 100), Chickweed ([1]; 62 g ai/ha): 40
- Plant response rating (scale of 0 to 100), Nutsedge, Yellow ([2]; Postemergence, 16 g ai/ha): 5
- Plant response rating (scale of 0 to 100), Nutsedge, Yellow ([2]; Postemergence, 31 g ai/ha): 50
- Plant response rating (scale of 0 to 100), Nutsedge, Yellow ([2]; Postemergence, 62 g ai/ha): 50
- Nutsedge, Yellow plant response rating [2, 11]: 60
- Plant response rating, Nutsedge, Yellow ([2]; 16 g ai/ha): 0
- Plant response rating, Nutsedge, Yellow ([2]; 31 g ai/ha): 0
- Plant response rating, Nutsedge, Yellow ([2]; 62 g ai/ha): 50
- Plant response rating (scale of 0 to 100), Cupgrass, Woolly ([3]; Postemergence, 16 g ai/ha): 60
- Plant response rating (scale of 0 to 100), Cupgrass, Woolly ([3]; Postemergence, 31 g ai/ha): 80
- Plant response rating (scale of 0 to 100), Cupgrass, Woolly ([3]; Postemergence, 62 g ai/ha): 80
- Cupgrass, Woolly plant response rating [3, 11]: 85
- Plant response rating, Cupgrass, Woolly [3, 12]: 0
- Plant response rating, Cupgrass, Woolly [3, 13]: 0
- Plant response rating, Cupgrass, Woolly [3, 14]: 15
- Plant response rating, Cupgrass, Woolly ([3]; 125 g ai/ha, scale 0 to 100): 50
- Plant response rating, Sunflower ([4]; 16 g ai/ha): 0
- Plant response rating, Sunflower ([4]; 31 g ai/ha): 50
- Plant response rating, Sunflower ([4]; 62 g ai/ha): 90
- Plant response rating (scale of 0 to 100), Surinam Grass ([5]; Postemergence, 16 g ai/ha): 45
- Plant response rating (scale of 0 to 100), Surinam Grass ([5]; Postemergence, 31 g ai/ha): 50
- Plant response rating (scale of 0 to 100), Surinam Grass ([5]; Postemergence, 62 g ai/ha): 80
- Surinam Grass plant response rating [5, 11]: 80
- Plant response rating, Surinam Grass ([5]; 16 g ai/ha): 40
- Plant response rating, Surinam Grass ([5]; 31 g ai/ha): 40
- Plant response rating, Surinam Grass ([5]; 62 g ai/ha): 50
- Plant response rating (scale of 0 to 100), Kochia (kochia (Kochia scoparia); Postemergence, 16 g ai/ha): 90
- Plant response rating (scale of 0 to 100), Kochia (kochia (Kochia scoparia); Postemergence, 31 g ai/ha): 90
- Plant response rating (scale of 0 to 100), Kochia (kochia (Kochia scoparia); Postemergence, 62 g ai/ha): 90
- Kochia plant response rating (kochia (Kochia scoparia); [11]): 90
- Plant response rating, Kochia (kochia (Kochia scoparia); [12]): 0
- Plant response rating, Kochia (kochia (Kochia scoparia); [13]): 5
- Plant response rating, Kochia (kochia (Kochia scoparia); [14]): 20
- Plant response rating, Kochia (kochia (Kochia scoparia); 125 g ai/ha, scale 0 to 100): 60
- Plant response rating (scale of 0 to 100), Morningglory ([6]; Postemergence, 16 g ai/ha): 20
- Plant response rating (scale of 0 to 100), Morningglory ([6]; Postemergence, 31 g ai/ha): 50
- Plant response rating (scale of 0 to 100), Morningglory ([6]; Postemergence, 62 g ai/ha): 50
- Morningglory plant response rating [6, 11]: 50
- Plant response rating, Morningglory [6, 12]: 0
- Plant response rating, Morningglory [6, 13]: 0
- Plant response rating, Morningglory [6, 14]: 5
- Plant response rating, Morningglory ([6]; 125 g ai/ha, scale 0 to 100): 50
- Plant response rating (scale of 0 to 100), Pigweed ([7]; Postemergence, 16 g ai/ha): 90
- Plant response rating (scale of 0 to 100), Pigweed ([7]; Postemergence, 31 g ai/ha): 95
- Plant response rating (scale of 0 to 100), Pigweed ([7]; Postemergence, 62 g ai/ha): 95
- Pigweed plant response rating [7, 11]: 95
- Plant response rating, Pigweed ([7]; 16 g ai/ha): 50
- Plant response rating, Pigweed ([7]; 31 g ai/ha): 80
- Plant response rating, Pigweed ([7]; 62 g ai/ha): 90
- Plant response rating (scale of 0 to 100), Ragweed ([8]; Postemergence, 16 g ai/ha): 95
- Plant response rating (scale of 0 to 100), Ragweed ([8]; Postemergence, 31 g ai/ha): 95
- Plant response rating (scale of 0 to 100), Ragweed ([8]; Postemergence, 62 g ai/ha): 100
- Ragweed plant response rating [8, 11]: 100
- Plant response rating, Ragweed ([8]; 16 g ai/ha): 60
- Plant response rating, Ragweed ([8]; 31 g ai/ha): 60
- Plant response rating, Ragweed ([8]; 62 g ai/ha): 90
- Plant response rating (scale of 0 to 100), Johnsongrass ([9]; Postemergence, 16 g ai/ha): 10
- Plant response rating (scale of 0 to 100), Johnsongrass ([9]; Postemergence, 31 g ai/ha): 50
- Plant response rating (scale of 0 to 100), Johnsongrass ([9]; Postemergence, 62 g ai/ha): 50
- Johnsongrass plant response rating [9, 11]: 50
- Plant response rating, Johnsongrass [9, 12]: 0
- Plant response rating, Johnsongrass [9, 13]: 35
- Plant response rating, Johnsongrass [9, 14]: 60
- Plant response rating, Johnsongrass ([9]; 125 g ai/ha, scale 0 to 100): 70
- Plant response rating (scale of 0 to 100), Foxtail, Giant ([10]; Postemergence, 16 g ai/ha): 50
- Plant response rating (scale of 0 to 100), Foxtail, Giant ([10]; Postemergence, 31 g ai/ha): 55
- Plant response rating (scale of 0 to 100), Foxtail, Giant ([10]; Postemergence, 62 g ai/ha): 70
- Foxtail, Giant plant response rating [10, 11]: 80
- Plant response rating, Foxtail, Giant [10, 12]: 0
- Plant response rating, Foxtail, Giant [10, 13]: 0
- Plant response rating, Foxtail, Giant [10, 14]: 5
- Plant response rating, Foxtail, Giant ([10]; 125 g ai/ha, scale 0 to 100): 50
- Plant response rating (scale of 0 to 100), Soybean (soybean (Glycine max); Postemergence, 16 g ai/ha): 100
- Plant response rating (scale of 0 to 100), Soybean (soybean (Glycine max); Postemergence, 31 g ai/ha): 100
- Plant response rating (scale of 0 to 100), Soybean (soybean (Glycine max); Postemergence, 62 g ai/ha): 100
- Soybean plant response rating (soybean (Glycine max); [11]): 100
- Plant response rating, Soybean (soybean (Glycine max); 16 g ai/ha): 85
- Plant response rating, Soybean (soybean (Glycine max); 31 g ai/ha): 100
- Plant response rating, Soybean (soybean (Glycine max); 62 g ai/ha): 100

From patent publication US8802597B2, “Herbicidal pyrimidines” (E I du Pont de Nemours and Company, priority 2003, dated 2014)
